System: 349418-098-R-PDC complex spheroid viability
Assay: Anticancer human tumor 349418-098-R-PDC patient-derived lung adenocarcinoma cell line growth inhibition [RAS]
Conditions: for IC50: curve of first compound; for viability, T/C: stronger effect = lower value; active means viability on the fitted dose curve at most 10% of control; inactive means the rest
How it was run: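 Tumour cells grown as complex spheroids with HUVEC endothelial cells and mesenchymal stem cells, treated with RAS pathway inhibitor combinations. Each agent spans half-log steps from near clinical Cmax, or 10 microM where Cmax is unknown.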
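Further: spheroids exposed to compound for seven days before viability readout.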

C=CC(=O)N1CCN(c2nc(OCC3CCCN3C)nc3c(F)c(-c4nc(N)cc(C)c4C(F)(F)F)c(Cl)cc23)C(C)C1 (centres undefined) + CCn1c(-c2cccnc2C(C)OC)c2c3cc(ccc31)N1CCOC(CC(NC(=O)C(C(C)C)N(C)C(=O)C3(F)CCN(C(=O)C#CC(C)(C)N(C)C)CC3)C(=O)N3CCCC(N3)C(=O)OCC(C)(C)C2)C1
> 1000 nM: IC50 (second compound 0.000949 µM) | IC50 (second compound 0.003 µM) | IC50 (second compound 0.00949 µM) | IC50 (second compound 0.03 µM) | IC50 (second compound 0.0949 µM) | IC50 (second compound 0.3 µM)
inactive: viability, T/C (second compound 0.000949 µM, first compound 0.00316 µM) 99% | viability, T/C (second compound 0.000949 µM, first compound 0.01 µM) 94% | viability, T/C (second compound 0.000949 µM, first compound 0.0316 µM) 111% | viability, T/C (second compound 0.000949 µM, first compound 0.1 µM) 106% | viability, T/C (second compound 0.000949 µM, first compound 0.316 µM) 116% | viability, T/C (second compound 0.000949 µM, first compound 1 µM) 87.4% | viability, T/C (second compound 0.003 µM, first compound 0.00316 µM) 112% | viability, T/C (second compound 0.003 µM, first compound 0.01 µM) 97.6% | viability, T/C (second compound 0.003 µM, first compound 0.0316 µM) 103% | viability, T/C (second compound 0.003 µM, first compound 0.1 µM) 92.6% | viability, T/C (second compound 0.003 µM, first compound 0.316 µM) 109% | viability, T/C (second compound 0.003 µM, first compound 1 µM) 82.8% | viability, T/C (second compound 0.00949 µM, first compound 0.00316 µM) 105% | viability, T/C (second compound 0.00949 µM, first compound 0.01 µM) 98.3% | viability, T/C (second compound 0.00949 µM, first compound 0.0316 µM) 101% | viability, T/C (second compound 0.00949 µM, first compound 0.1 µM) 101% | viability, T/C (second compound 0.00949 µM, first compound 0.316 µM) 105% | viability, T/C (second compound 0.00949 µM, first compound 1 µM) 98.8% | viability, T/C (second compound 0.03 µM, first compound 0.00316 µM) 99.3% | viability, T/C (second compound 0.03 µM, first compound 0.01 µM) 97.4% | viability, T/C (second compound 0.03 µM, first compound 0.0316 µM) 90.2% | viability, T/C (second compound 0.03 µM, first compound 0.1 µM) 104% | viability, T/C (second compound 0.03 µM, first compound 0.316 µM) 103% | viability, T/C (second compound 0.03 µM, first compound 1 µM) 83.3% | viability, T/C (second compound 0.0949 µM, first compound 0.00316 µM) 102% | viability, T/C (second compound 0.0949 µM, first compound 0.01 µM) 89% | viability, T/C (second compound 0.0949 µM, first compound 0.0316 µM) 85.5% | viability, T/C (second compound 0.0949 µM, first compound 0.1 µM) 89.7% | viability, T/C (second compound 0.0949 µM, first compound 0.316 µM) 100% | viability, T/C (second compound 0.0949 µM, first compound 1 µM) 89% | viability, T/C (second compound 0.3 µM, first compound 0.00316 µM) 85.4% | viability, T/C (second compound 0.3 µM, first compound 0.01 µM) 95.2% | viability, T/C (second compound 0.3 µM, first compound 0.0316 µM) 83.8% | viability, T/C (second compound 0.3 µM, first compound 0.1 µM) 87.8% | viability, T/C (second compound 0.3 µM, first compound 0.316 µM) 101% | viability, T/C (second compound 0.3 µM, first compound 1 µM) 80%

CC1(C)CCC(Nc2ncc(C(F)(F)F)c(-c3c[nH]c4c(P(C)(C)=O)c(C#N)ccc34)n2)CN1 (centres undefined) + CCn1c(-c2cccnc2C(C)OC)c2c3cc(ccc31)N1CCOC(CC(NC(=O)C(C(C)C)N(C)C(=O)C3(F)CCN(C(=O)C#CC(C)(C)N(C)C)CC3)C(=O)N3CCCC(N3)C(=O)OCC(C)(C)C2)C1
1.25 nM: IC50 (second compound 0.03 µM)
1.31 nM: IC50 (second compound 0.003 µM)
1.02 nM: IC50 (second compound 0.0949 µM)
inactive: viability, T/C (second compound 0.000949 µM, first compound 0.000949 µM) 36.9% | viability, T/C (second compound 0.000949 µM, first compound 0.003 µM) 19.5% | viability, T/C (second compound 0.000949 µM, first compound 0.00949 µM) 10.7% | viability, T/C (second compound 0.003 µM, first compound 0.000949 µM) 60.5% | viability, T/C (second compound 0.003 µM, first compound 0.003 µM) 22.8% | viability, T/C (second compound 0.003 µM, first compound 0.00949 µM) 14.4% | viability, T/C (second compound 0.00949 µM, first compound 0.000949 µM) 49.8% | viability, T/C (second compound 0.00949 µM, first compound 0.003 µM) 19.5% | viability, T/C (second compound 0.00949 µM, first compound 0.00949 µM) 12.2% | viability, T/C (second compound 0.03 µM, first compound 0.000949 µM) 59.3% | viability, T/C (second compound 0.03 µM, first compound 0.003 µM) 21.2% | viability, T/C (second compound 0.03 µM, first compound 0.00949 µM) 12.3% | viability, T/C (second compound 0.0949 µM, first compound 0.000949 µM) 52.1% | viability, T/C (second compound 0.0949 µM, first compound 0.003 µM) 22% | viability, T/C (second compound 0.0949 µM, first compound 0.00949 µM) 9.91% | viability, T/C (second compound 0.3 µM, first compound 0.000949 µM) 55.7% | viability, T/C (second compound 0.3 µM, first compound 0.003 µM) 22.5% | viability, T/C (second compound 0.3 µM, first compound 0.00949 µM) 9.85%
1.15 nM: IC50 (second compound 0.3 µM)
active: viability, T/C (second compound 0.000949 µM, first compound 0.03 µM) 8.99% | viability, T/C (second compound 0.000949 µM, first compound 0.0949 µM) 8.61% | viability, T/C (second compound 0.000949 µM, first compound 0.3 µM) 7.56% | viability, T/C (second compound 0.003 µM, first compound 0.03 µM) 9.79% | viability, T/C (second compound 0.003 µM, first compound 0.0949 µM) 9.1% | viability, T/C (second compound 0.003 µM, first compound 0.3 µM) 8.13% | viability, T/C (second compound 0.00949 µM, first compound 0.03 µM) 9.39% | viability, T/C (second compound 0.00949 µM, first compound 0.0949 µM) 9.09% | viability, T/C (second compound 0.00949 µM, first compound 0.3 µM) 6.88% | viability, T/C (second compound 0.03 µM, first compound 0.03 µM) 8.37% | viability, T/C (second compound 0.03 µM, first compound 0.0949 µM) 9.21% | viability, T/C (second compound 0.03 µM, first compound 0.3 µM) 7.47% | viability, T/C (second compound 0.0949 µM, first compound 0.03 µM) 7.89% | viability, T/C (second compound 0.0949 µM, first compound 0.0949 µM) 8.73% | viability, T/C (second compound 0.0949 µM, first compound 0.3 µM) 7.62% | viability, T/C (second compound 0.3 µM, first compound 0.03 µM) 9.41% | viability, T/C (second compound 0.3 µM, first compound 0.0949 µM) 8.24% | viability, T/C (second compound 0.3 µM, first compound 0.3 µM) 6.74%
< 0.949 nM: IC50 (second compound 0.000949 µM) | IC50 (second compound 0.00949 µM)
